{"source": "ChEMBL document CHEMBL4340543", "about": "“Synthesis and biological evaluation of new HIV-1 protease inhibitors with purine bases as P2-ligands” (Bioorg Med Chem Lett, 2019)", "data": [{"target": "Protease (Human immunodeficiency virus 1, UniProt Q9YQ12)", "sequence (Q9YQ12 whole entry)": "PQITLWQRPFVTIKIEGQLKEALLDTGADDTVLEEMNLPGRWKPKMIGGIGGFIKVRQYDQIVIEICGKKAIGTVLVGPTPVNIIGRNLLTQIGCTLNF", "assay": "Inhibition of wild type HIV1 protease expressed in Escherichia coli using Arg-Glu (EDANS)-Ser-Gln-Asn-Tyr-Pro-Ile-Val-Gln-Lys(DABCYL)-Arg as substrate preincubated for 20 to 30 mins followed by substrate addition and measured for 10 mins by FRET assay", "units": {"IC50": "nM"}, "values": [{"smiles": "CC(C)CN(C[C@@H](O)[C@H](Cc1ccccc1)NC(=O)Cn1cnc2c(N)ncnc21)S(=O)(=O)c1ccc([N+](=O)[O-])cc1", "IC50": 3580}, {"smiles": "CC(C)CN(C[C@@H](O)[C@H](Cc1ccccc1)NC(=O)Cn1cnc2cnc(N)nc21)S(=O)(=O)c1ccc([N+](=O)[O-])cc1", "IC50": 3680}, {"smiles": "CC(C)CN(C[C@@H](O)[C@H](Cc1ccccc1)NC(=O)Cn1cnc2c(Cl)nc(N)nc21)S(=O)(=O)c1ccc(N)cc1", "IC50": 11700}, {"smiles": "CC(C)CN(C[C@@H](O)[C@H](Cc1ccccc1)NC(=O)Cn1cnc2cncnc21)S(=O)(=O)c1ccc(N)cc1", "IC50": 570}, {"smiles": "Cc1nc2cncnc2n1CC(=O)N[C@@H](Cc1ccccc1)[C@H](O)CN(CC(C)C)S(=O)(=O)c1ccc(N)cc1", "IC50": 640}, {"smiles": "COc1ncnc2c1ncn2CC(=O)N[C@@H](Cc1ccccc1)[C@H](O)CN(CC(C)C)S(=O)(=O)c1ccc([N+](=O)[O-])cc1", "IC50": 2600}, {"smiles": "COc1ccc(S(=O)(=O)N(CC(C)C)C[C@@H](O)[C@H](Cc2ccccc2)NC(=O)Cn2cnc3c(N)ncnc32)cc1", "IC50": 1980}, {"smiles": "CC(C)CN(C[C@@H](O)[C@H](Cc1ccccc1)NC(=O)Cn1cnc2c(Cl)ncnc21)S(=O)(=O)c1ccc(N)cc1", "IC50": 7020}, {"smiles": "CC(C)CN(C[C@@H](O)[C@H](Cc1ccccc1)NC(=O)Cn1cnc2c(O)ncnc21)S(=O)(=O)c1ccc(N)cc1", "IC50": 1810}, {"smiles": "CC(C)CN(C[C@@H](O)[C@H](Cc1ccccc1)NC(=O)Cn1cnc2c(Cl)nc(N)nc21)S(=O)(=O)c1ccc([N+](=O)[O-])cc1", "IC50": 960}, {"smiles": "COc1nc(N)nc2c1ncn2CC(=O)N[C@@H](Cc1ccccc1)[C@H](O)CN(CC(C)C)S(=O)(=O)c1ccc([N+](=O)[O-])cc1", "IC50": 1730}, {"smiles": "Cc1ncnc2c1ncn2CC(=O)N[C@@H](Cc1ccccc1)[C@H](O)CN(CC(C)C)S(=O)(=O)c1ccc(N)cc1", "IC50": 3760}, {"smiles": "CC(C)CN(C[C@@H](O)[C@H](Cc1ccccc1)NC(=O)Cn1cnc2cnc(N)nc21)S(=O)(=O)c1ccc(N)cc1", "IC50": 6790}, {"smiles": "CC(C)CN(C[C@@H](O)[C@H](Cc1ccccc1)NC(=O)Cn1cnc2c(O)ncnc21)S(=O)(=O)c1ccc([N+](=O)[O-])cc1", "IC50": 2430}, {"smiles": "Cc1nc2cncnc2n1CC(=O)N[C@@H](Cc1ccccc1)[C@H](O)CN(CC(C)C)S(=O)(=O)c1ccc([N+](=O)[O-])cc1", "IC50": 570}, {"smiles": "CC(C)CN(C[C@@H](O)[C@H](Cc1ccccc1)NC(=O)Cn1cnc2c(O)nc(N)nc21)S(=O)(=O)c1ccc([N+](=O)[O-])cc1", "IC50": 790}, {"smiles": "COc1ccc(S(=O)(=O)N(CC(C)C)C[C@@H](O)[C@H](Cc2ccccc2)NC(=O)Cn2c(C)nc3cncnc32)cc1", "IC50": 150}, {"smiles": "COc1ccc(S(=O)(=O)N(CC(C)C)C[C@@H](O)[C@H](Cc2ccccc2)NC(=O)Cn2cnc3cncnc32)cc1", "IC50": 240}, {"smiles": "COc1ccc(S(=O)(=O)N(CC(C)C)C[C@@H](O)[C@H](Cc2ccccc2)NC(=O)Cn2cnc3c(OC)ncnc32)cc1", "IC50": 180}, {"smiles": "CC(C)CN(C[C@@H](O)[C@H](Cc1ccccc1)NC(=O)Cn1cnc2c(Cl)ncnc21)S(=O)(=O)c1ccc([N+](=O)[O-])cc1", "IC50": 310}, {"smiles": "COc1ncnc2c1ncn2CC(=O)N[C@@H](Cc1ccccc1)[C@H](O)CN(CC(C)C)S(=O)(=O)c1ccc(N)cc1", "IC50": 1510}, {"smiles": "COc1ccc(S(=O)(=O)N(CC(C)C)C[C@@H](O)[C@H](Cc2ccccc2)NC(=O)Cn2cnc3c(OC)nc(N)nc32)cc1", "IC50": 460}, {"smiles": "COc1ccc(S(=O)(=O)N(CC(C)C)C[C@@H](O)[C@H](Cc2ccccc2)NC(=O)Cn2cnc3c(O)nc(N)nc32)cc1", "IC50": 80}, {"smiles": "CC(C)CN(C[C@@H](O)[C@H](Cc1ccccc1)NC(=O)Cn1cnc2c(O)nc(N)nc21)S(=O)(=O)c1ccc(N)cc1", "IC50": 4730}, {"smiles": "COc1ccc(S(=O)(=O)N(CC(C)C)C[C@@H](O)[C@H](Cc2ccccc2)NC(=O)Cn2cnc3c(C)ncnc32)cc1", "IC50": 42}, {"smiles": "Cc1ncnc2c1ncn2CC(=O)N[C@@H](Cc1ccccc1)[C@H](O)CN(CC(C)C)S(=O)(=O)c1ccc([N+](=O)[O-])cc1", "IC50": 2530}, {"smiles": "COc1ccc(S(=O)(=O)N(CC(C)C)C[C@@H](O)[C@H](Cc2ccccc2)NC(=O)Cn2cnc3c(O)ncnc32)cc1", "IC50": 68}, {"smiles": "CC(C)CN(C[C@@H](O)[C@H](Cc1ccccc1)NC(=O)Cn1cnc2cncnc21)S(=O)(=O)c1ccc([N+](=O)[O-])cc1", "IC50": 2580}, {"smiles": "COc1ccc(S(=O)(=O)N(CC(C)C)C[C@@H](O)[C@H](Cc2ccccc2)NC(=O)Cn2cnc3cnc(N)nc32)cc1", "IC50": 360}, {"smiles": "COc1nc(N)nc2c1ncn2CC(=O)N[C@@H](Cc1ccccc1)[C@H](O)CN(CC(C)C)S(=O)(=O)c1ccc(N)cc1", "IC50": 190}, {"smiles": "COc1ccc(S(=O)(=O)N(CC(C)C)C[C@@H](O)[C@H](Cc2ccccc2)NC(=O)Cn2cnc3c(Cl)ncnc32)cc1", "IC50": 43}, {"smiles": "CC(C)CN(C[C@@H](O)[C@H](Cc1ccccc1)NC(=O)Cn1cnc2c(N)ncnc21)S(=O)(=O)c1ccc(N)cc1", "IC50": 1240}, {"smiles": "COc1ccc(S(=O)(=O)N(CC(C)C)C[C@@H](O)[C@H](Cc2ccccc2)NC(=O)Cn2cnc3c(Cl)nc(N)nc32)cc1", "IC50": 570}]}]}
